Measurements from US9260425B2 (Genetech, Inc., priority 2011, dated 2016).

Molecular target: Pim-1 (Homo sapiens (Human), UniProt P11309)
Assay: Pim kinase binding activity assay (Example 901), PIM-1 enzyme, Caliper microfluidic peptide phosphorylation
Assay type: biochemical
Settings: 20 pM PIM-1, 10 μM ATP, 1 μM FAM-peptide, 90 minutes at room temperature
Procedure, shortened: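 PIM-1 at 20 pM phosphorylated 1 μM FAM-labelled Pim peptide with 10 μM ATP in HEPES pH 7.2, MgCl2, Tween 20 and DTT for 90 min at room temperature. EDTA stopped the reaction, and product and substrate were resolved by microfluidic electrophoresis (ex 488/em 530 nm). Ki was derived from substrate conversion.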

Chain of Pim-1 (P11309 whole entry): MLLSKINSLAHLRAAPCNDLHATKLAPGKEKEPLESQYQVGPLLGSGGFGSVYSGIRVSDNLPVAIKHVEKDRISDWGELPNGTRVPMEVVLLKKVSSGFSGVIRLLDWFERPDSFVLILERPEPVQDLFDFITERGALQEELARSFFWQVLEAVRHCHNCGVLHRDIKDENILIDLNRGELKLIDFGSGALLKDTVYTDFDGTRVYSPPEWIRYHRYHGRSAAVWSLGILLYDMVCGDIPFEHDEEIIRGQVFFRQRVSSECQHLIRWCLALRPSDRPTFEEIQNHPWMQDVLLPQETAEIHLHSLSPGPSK

Ki | SMILES
28.8 nM | C1=C(c2n[nH]c3cnc(-c4cccnc4)cc23)CCCO1 [Example 281, 3-(3,4-dihydro-2H-pyran-5-yl)-5-(pyridin-3-yl)-1H-pyrazolo[3,4-c]pyridine]
0.015 nM | CCn1cncc(-c2cc3c(-c4cccc(N5CCNCC5)n4)n[nH]c3cn2)c1=O [Example 515, 3-ethyl-5-(3-(6-(piperazin-1-yl)pyridin-2-yl)-1H-pyrazolo[3,4-c]pyridin-5-yl)pyrimidin-4(3H)-one]
0.13 nM | OCCn1cc(-c2cc3c(-c4cccc(N5CCNCC5)n4)n[nH]c3cn2)cn1 [Example 496, 2-(4-(3-(6-(piperazin-1-yl)pyridin-2-yl)-1H-pyrazolo[3,4-c]pyridin-5-yl)-1H-pyrazol-1-yl)ethanol]
0.03 nM | CCn1cc(-c2cc3c(-c4ccc(C)c(N5C[C@@H](N)C[C@@H](F)C5)n4)n[nH]c3cn2)cn1 [Example 510, (3S,5R)-1-(6-(5-(1-ethyl-1H-pyrazol-4-yl)-1H-pyrazolo[3,4-c]pyridin-3-yl)-3-methylpyridin-2-yl)-5-fluoropiperidin-3-amine]
0.181 nM | CCn1cc(-c2cc3c(-c4cccc(N5CCNC(C(F)(F)F)CC5)n4)n[nH]c3cn2)cn1 (centres unmarked) [Example 491, 5-(1-ethyl-1H-pyrazol-4-yl)-3-(6-(5-(trifluoromethyl)-1,4-diazepan-1-yl)pyridin-2-yl)-1H-pyrazolo[3,4-c]pyridine]
0.03 nM | Cn1cc(-c2cc3c(-c4ccc(Br)c(N5C[C@@H](N)C[C@@H](F)C5)n4)n[nH]c3cn2)cn1 [Example 456, (3S,5R)-1-(3-bromo-6-(5-(1-methyl-1H-pyrazol-4-yl)-1H-pyrazolo[3,4-c]pyridin-3-yl)pyridin-2-yl)-5-fluoropiperidin-3-amine]
0.042 nM | NCC[C@H]1CCCN(c2cccc(-c3n[nH]c4cnc(-c5cccnc5)cc34)n2)C1 [Example 237, (R)-2-(1-(6-(5-(pyridin-3-yl)-1H-pyrazolo[3,4-c]pyridin-3-yl)pyridin-2-yl)piperidin-3-yl)ethanamine]
1400 nM | NC1CCN(Cc2n[nH]c3cnc(-c4cccnc4)cc23)CC1 [Example 106, 1-((5-(pyridin-3-yl)-1H-pyrazolo[3,4-c]pyridin-3-yl)methyl)piperidin-4-amine]
0.22 nM | NC(=O)C1(N)CCN(c2cccc(-c3n[nH]c4cnc(-c5cccnc5)cc34)n2)CC1 [Example 229, 4-amino-1-(6-(5-(pyridin-3-yl)-1H-pyrazolo[3,4-c]pyridin-3-yl)pyridin-2-yl)piperidine-4-carboxamide]
26.8 nM | Fc1ccccc1-c1n[nH]c2cnc(-c3cncs3)cc12 [Example 348, 5-(3-(2-fluorophenyl)-1H-pyrazolo[3,4-c]pyridin-5-yl)thiazole]
0.106 nM | c1cc(-c2n[nH]c3cnc(-c4cnn(C5CC5)c4)cc23)nc(N2CCNCC2)c1 [Example 487, 5-(1-cyclopropyl-1H-pyrazol-4-yl)-3-(6-(piperazin-1-yl)pyridin-2-yl)-1H-pyrazolo[3,4-c]pyridine]
0.062 nM | Cc1ccc(-c2n[nH]c3cnc(-c4cnn(C)c4)cc23)nc1N1CCC[C@H](O)C1 [Example 441, (S)-1-(3-methyl-6-(5-(1-methyl-1H-pyrazol-4-yl)-1H-pyrazolo[3,4-c]pyridin-3-yl)pyridin-2-yl)piperidin-3-ol]
1.82 nM | c1cc(-c2n[nH]c3cnc(-n4ccnc4)cc23)nc(N2CCNCC2)c1 [Example 368, 5-(1H-imidazol-1-yl)-3-(6-(piperazin-1-yl)pyridin-2-yl)-1H-pyrazolo[3,4-c]pyridine]
0.191 nM | Cn1cc(-c2cc3c(-c4ccc(Br)c(N5CCOCC5)n4)n[nH]c3cn2)cn1 [Example 449, 4-(3-bromo-6-(5-(1-methyl-1H-pyrazol-4-yl)-1H-pyrazolo[3,4-c]pyridin-3-yl)pyridin-2-yl)morpholine]
826 nM | N#CCc1n[nH]c2cnc(-c3cccnc3)cc12 [Example 134, 2-(5-(pyridin-3-yl)-1H-pyrazolo[3,4-c]pyridin-3-yl)acetonitrile]
241 nM | CN1CC(c2cc3c(-c4ccccc4)n[nH]c3cn2)CC1=O (centres unmarked) [Example 263, 1-methyl-4-(3-phenyl-1H-pyrazolo[3,4-c]pyridin-5-yl)pyrrolidin-2-one]
7.71 nM | Cn1cc(-c2cc3c(-c4ccccn4)n[nH]c3cn2)cn1 [Example 332, 5-(1-methyl-1H-pyrazol-4-yl)-3-(pyridin-2-yl)-1H-pyrazolo[3,4-c]pyridine]
3000 nM | N[C@H]1CCCN(Cc2n[nH]c3cnc(-c4cn[nH]c4)cc23)C1 [Example 107, (S)-1-((5-(1H-pyrazol-4-yl)-1H-pyrazolo[3,4-c]pyridin-3-yl)methyl)piperidin-3-amine]
0.055 nM | CCn1cc(-c2cc3c(-c4ccc(C)c(N5CCNCC5)n4)n[nH]c3cn2)cn1 [Example 432, 5-(1-ethyl-1H-pyrazol-4-yl)-3-(5-methyl-6-(piperazin-1-yl)pyridin-2-yl)-1H-pyrazolo[3,4-c]pyridine]
0.168 nM | Cn1cc(-c2cc3c(-c4cccc(N5CCC(O)CC5)n4)n[nH]c3cn2)cn1 [Example 294, 1-(6-(5-(1-methyl-1H-pyrazol-4-yl)-1H-pyrazolo[3,4-c]pyridin-3-yl)pyridin-2-yl)piperidin-4-ol]
0.11 nM | C[C@@]1(N)CCCN(c2cccc(-c3n[nH]c4cnc(-c5cccnc5)cc34)n2)C1 [Example 347, (R)-3-methyl-1-(6-(5-(pyridin-3-yl)-1H-pyrazolo[3,4-c]pyridin-3-yl)pyridin-2-yl)piperidin-3-amine]
0.013 nM | CCc1ccc(-c2n[nH]c3cnc(-c4cnn(CC)c4)cc23)nc1N1CCC[C@H](N)C1 [Example 477, (S)-1-(3-ethyl-6-(5-(1-ethyl-1H-pyrazol-4-yl)-1H-pyrazolo[3,4-c]pyridin-3-yl)pyridin-2-yl)piperidin-3-amine]

The next lines start with the compound.

SMILES | Ki
N[C@@H]1CCCN(c2cccc(-c3n[nH]c4cnc(N5CCOC5=O)cc34)n2)C1 [Example 370, (R)-3-(3-(6-(3-aminopiperidin-1-yl)pyridin-2-yl)-1H-pyrazolo[3,4-c]pyridin-5-yl)oxazolidin-2-one] | 180 nM
Fc1ccc(-c2cc3c(-c4cccc(N5CCNCC5)n4)n[nH]c3cn2)cn1 [Example 378, 5-(6-fluoropyridin-3-yl)-3-(6-(piperazin-1-yl)pyridin-2-yl)-1H-pyrazolo[3,4-c]pyridine] | 0.796 nM
Cn1cc(-c2cc3c(-c4cnn(C)c4)n[nH]c3cn2)cn1 [Example 163, 3,5-bis(1-methyl-1H-pyrazol-4-yl)-1H-pyrazolo[3,4-c]pyridine] | 1.92 nM
Cc1n[nH]c2cnc(-c3cncnc3)cc12 [Example 115, 3-methyl-5-(pyrimidin-5-yl)-1H-pyrazolo[3,4-c]pyridine] | 3500 nM
C=C(C)c1ccc(-c2n[nH]c3cnc(-c4cnn(CC)c4)cc23)nc1N1CCC[C@H](N)C1 [Example 427, (S)-1-(6-(5-(1-ethyl-1H-pyrazol-4-yl)-1H-pyrazolo[3,4-c]pyridin-3-yl)-3-(prop-1-en-2-yl)pyridin-2-yl)piperidin-3-amine] | 0.016 nM
Cn1cc(-c2n[nH]c3cnc(-c4cncc(N5CCC(N)CC5)n4)cc23)cn1 [Example 221, 1-(6-(3-(1-methyl-1H-pyrazol-4-yl)-1H-pyrazolo[3,4-c]pyridin-5-yl)pyrazin-2-yl)piperidin-4-amine] | 0.096 nM
NC1CCN(Cc2n[nH]c3cnc(-c4cn[nH]c4)cc23)CC1 [Example 108, l-((5-(1H-pyrazol-4-yl)-1H-pyrazolo[3,4-c]pyridin-3-yl)methyl)piperidin-4-amine] | 1100 nM
Cn1cc(-c2cc3c(-c4cccc(N5CCC[C@@H](N)C5)c4)n[nH]c3cn2)cn1 [Example 222, (R)-1-(3-(5-(1-methyl-1H-pyrazol-4-yl)-1H-pyrazolo[3,4-c]pyridin-3-yl)phenyl)piperidin-3-amine] | 0.387 nM
c1ccc(-c2n[nH]c3cnc(-c4ccoc4)cc23)cc1 [Example 185, 5-(furan-3-yl)-3-phenyl-1H-pyrazolo[3,4-c]pyridine] | 70.9 nM
NC1CCN(c2cncc(-c3n[nH]c4cnc(-c5cccnc5)cc34)c2)CC1 [Example 158, 1-(5-(5-(pyridin-3-yl)-1H-pyrazolo[3,4-c]pyridin-3-yl)pyridin-3-yl)piperidin-4-amine] | 2.1 nM
N#CCn1cc(-c2cc3c(-c4cccc(N5CCNCC5)n4)n[nH]c3cn2)cn1 [Example 473, 2-(4-(3-(6-(piperazin-1-yl)pyridin-2-yl)-1H-pyrazolo[3,4-c]pyridin-5-yl)-1H-pyrazol-1-yl)acetonitrile] | 0.022 nM
c1cc(-c2n[nH]c3cnc(-c4cncs4)cc23)nc(N2CCCCC2)c1 [Example 358, 5-(3-(6-(piperidin-1-yl)pyridin-2-yl)-1H-pyrazolo[3,4-c]pyridin-5-yl)thiazole] | 1.22 nM
Cn1cc(-c2cc3c(-c4ccc(Br)c(N5CCN(CCS(C)(=O)=O)C(C)(C)C5)n4)n[nH]c3cn2)cn1 [Example 406, 3-(5-bromo-6-(3,3-dimethyl-4-(2-(methylsulfonyl)ethyl)piperazin-1-yl)pyridin-2-yl)-5-(1-methyl-1H-pyrazol-4-yl)-1H-pyrazolo[3,4-c]pyridine] | 0.259 nM
Cn1cc(-c2cc3c(-c4ccc(Br)c(N5CC(N6CCNC(=O)C6)C5)n4)n[nH]c3cn2)cn1 [Example 405, 4-(1-(3-bromo-6-(5-(1-methyl-1H-pyrazol-4-yl)-1H-pyrazolo[3,4-c]pyridin-3-yl)pyridin-2-yl)azetidin-3-yl)piperazin-2-one] | 0.527 nM
CCn1cc(-c2cc3c(-c4cccc(N5C[C@H]6CNC[C@H]6C5)n4)n[nH]c3cn2)cn1 [Example 395] | 0.404 nM
O=C1CN(c2cc3c(-c4cccc(N5CCNCC5)n4)n[nH]c3cn2)CCN1 [Example 335, 4-(3-(6-(piperazin-1-yl)pyridin-2-yl)-1H-pyrazolo[3,4-c]pyridin-5-yl)piperazin-2-one] | 12.6 nM
